Laboratory results from patent publication US8697746B2, “Solid dispersion of alpha-ketoamide derivatives” (Senju Pharmaceutical Co., Ltd., priority 2010, dated 2014).

Assay: Dissolved amount in water (Test Example 1)
Assay type: physicochemical
Conditions: 5 mg sample in 1 mL water, shaken, supernatant measured by HPLC
Method: Each of the above-prepared Formulation 1 and the solid dispersions of Formulations 2 to 6 was separately dispersed in water. Sampling from each solution was performed at 15, 30, and 60 minutes after dispersion, and the concentration of ((1S)-1-((((1S)-1-benzyl-2,3-dioxo-3-(cyclopropylamino)propyl)amino) carbonyl)-3-methylbutyl)carbamic acid 5-methoxy-3-oxapentyl ester was measured according to the procedure shown below.
To 5 mg of each of the above-prepared Formulation 1 and the solid dispersions of Formulations 2 to 6, 1 mL of water was added and the mixture was shaken with a shaker (Labindustries Inc., Labquake Shaker L1237). Shaking was stopped when the predetermined sampling time elapsed, and centrifugation at 13000 rpm was immediately performed at 25° C. for 5 minutes with a centrifugal separator (Kendro Lab Products, Sorvall Biofuge Fresco) to give a supernatant. A sample solution was prepared by mixing 0.5 mL of methanol to 0.5 mL of the supernatant and then measured for concentration of ((1S)-1-((((1S)-1-benzyl-2,3-dioxo-3-(cyclopropylamino)propyl)amino)carbonyl)-3-methylbutyl) carbamic acid 5-methoxy-3-oxapentyl ester by HPLC (Shimadzu, 10A-VP system).
Detector: ultraviolet absorptiometer (detection wavelength: 252 nm)
Column: YMC-Pack ODS-A (inside diameter: 4.6 mm, length: 250 mm, particle diameter: 5 μm, YMC)
Column temperature: constant temperature at around 40° C. […]

COCCOCCOC(=O)N[C@@H](CC(C)C)C(=O)N[C@@H](Cc1ccccc1)C(=O)C(=O)NC1CC1 [((1S)-1-((((1S)-1-benzyl-2,3-dioxo-3-(cyclopropylamino)propyl)amino)carbonyl)-3-methylbutyl)carbamic acid 5-methoxy-3-oxapentyl ester]
dissolved amount in water: 0.45 mg/mL
